One assay relates to MCF7 cells. Briefly: Inhibition of the proliferation of MCF7 cells (Cell Titer-Glo). Type of assay: cell-based. To be noted: Homo sapiens, MCF-7 cells, 72 hours, read-out: IC50 value of inhibition effect on the proliferation of MCF7 cells. The method in brief: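 MCF-7 cells seeded 24 h, then treated with compound (0.5% DMSO final) in 2% FBS medium for 72 h at 37 °C; viability read by CellTiter-Glo luminescence. IC50 from luminescence vs log concentration; maximum inhibition scaled to AZD9496 at 100 nM set as 100%.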
Background: In ATP-based viability assays light output follows the ATP content of the culture.

In another assay the target is T1, ERα (Homo sapiens, UniProt P03372).
T1 construct: host or cells: MCF-7
T1 sequence (P03372 1-595): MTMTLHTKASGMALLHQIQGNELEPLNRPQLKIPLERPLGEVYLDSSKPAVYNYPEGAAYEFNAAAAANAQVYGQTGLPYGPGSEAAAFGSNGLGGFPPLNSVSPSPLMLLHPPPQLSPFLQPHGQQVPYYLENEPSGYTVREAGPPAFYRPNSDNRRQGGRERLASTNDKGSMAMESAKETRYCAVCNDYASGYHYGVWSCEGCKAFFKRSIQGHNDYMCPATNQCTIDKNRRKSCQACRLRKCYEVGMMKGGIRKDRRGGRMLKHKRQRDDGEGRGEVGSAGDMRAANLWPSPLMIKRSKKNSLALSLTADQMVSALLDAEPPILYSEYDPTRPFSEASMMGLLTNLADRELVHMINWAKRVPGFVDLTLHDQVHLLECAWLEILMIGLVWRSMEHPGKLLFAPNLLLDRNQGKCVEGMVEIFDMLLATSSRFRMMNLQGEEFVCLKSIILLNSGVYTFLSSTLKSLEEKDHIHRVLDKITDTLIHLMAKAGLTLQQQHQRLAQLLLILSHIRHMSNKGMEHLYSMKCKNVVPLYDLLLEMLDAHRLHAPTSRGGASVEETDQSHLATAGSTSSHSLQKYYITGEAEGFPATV
Briefly: Degradation effect on ERα in MCF-7 cells (ERα Duoset ELISA). In kind it is cell-based. To be noted: MCF7; compound at 3 μM, relative to positive control AZD-9496 at 3 μM set to 100%. The method, then: In order to determine the degradation effect on ER induced by the compound of present invention, the following method was used to determine the degradation effect of the compounds of the present invention on ER.
MCF-7 cell line (TChu 74, Cell Bank of Chinese Academy of Sciences typical culture preservation Committee)
ERα Duoset Kit (#DYC5715E, R&D System)
MCF-7 cells well incubated in DMEM/F-12 medium containing 10% FBS.
On the first day of the experiment, MCF-7 cells were resuspended in DMEM/F-12 medium containing 10% FBS treated by activated carbon, then inoculated into a 48-well plate with a density of 50,000 cells/well and incubated for 22-24 hours.
On the second day of the experiment, the test compound was diluted with medium and added to a 48-well plate. The ERα-capture antibody was diluted to 1 μg/ml with PBS, and added with 100 μl/well to a 96-well plate at 100 μl/well. The plate was sealed and coated overnight at room temperature.
On the third day of the experiment, the coated 96-well plate was washed twice with PBS, added with a sealing solution (1% BSA in PBS) at 110 μl/well and sealed for 1 hour at room temperature. The 48-well plate was washed once and the residual liquid was removed. Then, 60 μl of lysis buffer (6 M urea, 1 mM EDTA, 0.5% Triton X-100, 1 mM PMSF, Protease Inhibitor cocktail) was added to each well. After lysis on ice for 15 minutes, the diluent (1 mM EDTA, 0.5% TritonX-100 dissolved in PBS) was added. The cell-diluted lysate was transferred to a 96-well plate at 100 μl/well, then the plate was incubated at room temperature for 2 hours. The diluted primary antibody was added after the plate was washed 4 times with a washing liquid (PBST). After incubation for 1 hour, the 96-well plate was washed 4 times, and the second antibody was added, then the plate was incubated for 30 minutes. After the plate was washed with a washing liquid, TMB chromogenic solution was added and incubated for 15 minutes. The reaction was stopped by the addition of 1 M H2SO4, then the light absorption at a wavelength of 450 nm was read. The degradation effect of the compound AZD9496 at 3 μM was set to 100%, the Emax of other compounds=(ODnegative control−ODcompound 3 μM)/(ODnegative control−ODAZD9496 3 μM)×100%, and the negative control was a well with DMSO.
In general terms: In an ELISA, binding on a coated surface is turned into a signal by an enzyme label.

Broadly, the Emax is the size of the effect at its maximum, as opposed to the concentration needed.

Each structure is given as a SMILES string.

With `CCc1ccc(N2C(C)Cc3cc(-c4cnn(C)c4)ccc3C2c2ccc(/C=C/C(=O)O)cc2)cc1` [Example 1, (E)-3-(4-((1R,3R/1S,3S)-2-(4-Ethylphenyl)-3-methyl-6-(1-methyl-1H-pyrazol-4-yl)-1,2,3,4-tetrahydroisoquinolin-1-yl)phenyl)acrylic acid], the IC50 with MCF7 cells worked out at 0.37 nM. The maximal response (Emax) at 3 µM on ERα was determined as 115%.
As to `CCn1cc(-c2ccc3c(c2)CC(C)N(c2ccc(C(C)C)cc2)C3c2ccc(/C=C/C(=O)O)cc2)cn1` [Example 7, (E)-3-(4-((1R,3R/1S,3S)-6-(1-Ethyl-1H-pyrazol-4-yl)-2-(4-isopropylphenyl)-3-methyl-1,2,3,4-tetrahydroisoquinolin-1-yl)phenyl)acrylic acid], in the assay on MCF7 cells, the IC50 turned out to be 0.86 nM. On ERα, the Emax at 3 µM worked out at 118%.
Consider `CCn1cc(-c2ccc3c(c2)C[C@@H](C)N(c2ccc(C(C)C)cc2)[C@@H]3c2ccc(/C=C/C(=O)O)cc2)cn1` [Example 8, (E)-3-(4-((1R,3R)-6-(1-Ethyl-1H-pyrazol-4-yl)-2-(4-isopropylphenyl)-3-methyl-1,2,3,4-tetrahydroisoquinolin-1-yl)phenyl)acrylic acid], for which, in the assay on MCF7 cells, the IC50 came to 0.17 nM. On ERα, the maximum response (Emax) at 3 µM is 129%.
On the same counts, the results for `C[C@@H]1Cc2cc(-c3cnn(C)c3)ccc2[C@@H](c2ccc(/C=C/C(=O)O)cc2)N1c1ccc(C2CC2)cc1` [Example 11, (E)-3-(4-((1R,3R)-2-(4-Cyclopropylphenyl)-3-methyl-6-(1-methyl-1H-pyrazol-4-yl)-1,2,3,4-tetrahydroisoquinolin-1-yl)phenyl)acrylic acid] are 1.47 nM and 134%.
For the molecule `CCn1cc(-c2ccc3c(c2)C[C@@H](C)N(c2ccc(C4CC4)cc2)[C@@H]3c2ccc(/C=C/C(=O)O)cc2)cn1` [Example 14, (E)-3-(4-((1R,3R)-2-(4-Cyclopropylphenyl)-6-(1-ethyl-1H-pyrazol-4-yl)-3-methyl-1,2,3,4-tetrahydroisoquinolin-1-yl)phenyl)acrylic acid], the IC50 in the assay on MCF7 cells came to 0.53 nM. This molecule also gave an Emax at 3 µM on ERα of 147%.
In the case of `CC(C)c1ccc(N2[C@H](c3ccc(/C=C/C(=O)O)cc3)c3ccc(-c4cnn(C)c4)cc3C[C@H]2C)cc1` [Example 42, (E)-3-(4-((1R,3R)-2-(4-Isopropylphenyl)-3-methyl-6-(1-methyl-1H-pyrazol-4-yl)-1,2,3,4-tetrahydroisoquinolin-1-yl)phenyl)acrylic acid], the IC50 in the assay with MCF7 cells was determined as 0.34 nM. The molecule also had an Emax at 3 µM on ERα of 112%.

These data come from patent publication US10398689B2, “Benzopiperidine derivative, preparation method thereof and medical use thereof” (Jiangsu Hengrui Medicine Co., Ltd., priority 2015, dated 2019).
